Measurements as given in ChEMBL document CHEMBL3994670, “Therapeutic Advantage of the Positive Allosteric Modulators of the GABA-B Receptor” (ACS Med Chem Lett, 2017).

Experiment: Positive allosteric modulation of GABA-B receptor in rat brain cortex membranes assessed as increase in GABA-induced [35S]GTPgammaS binding after 60 mins by liquid scintillation counting method
Assay type: cell membranes

Row | SMILES | EC50 [nM]
1 | CC(=O)Nc1cccc(-c2nn(Cc3ccc(Cl)cc3)c(=O)c3c(C(C)C)noc23)c1 | 2590
2 | COc1ccc(NC(C)=O)cc1-c1nn([C@@H](C)c2ccc(Cl)cc2)c(=O)c2c(C)noc12 | 43
3 | COc1ccc(C(N)=O)cc1-c1nn(C(C)c2ccc(Cl)cc2)c(=O)c2c(C)noc12 (stereo unspecified) | 17
4 | CNC(=O)c1ccc(OC)c(-c2nn([C@@H](C)c3ccc(Cl)cc3)c(=O)c3c(C)noc23)c1 | 23
5 | Cc1noc2c(-c3cncc(F)c3)nn(C(C)c3ccc(Cl)cc3)c(=O)c12 (stereo unspecified) | 2690
6 | COc1ccc(NC(C)=O)cc1-c1nn([C@@H](C)c2ccc(Cl)cc2)c(=O)c2c(C3CC3)noc12 | 51
